Biological target: P. falciparum apicoplast DNA polymerase (Pf-apPOL) (Plasmodium falciparum, UniProt Q8ILY1)
Experiment: Fluorescence-based high-throughput DNA polymerase assay (molecular beacon), primary screen and dose-response;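 for % inhibition ApPOL 90': test concentration in µM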;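 for % inhibition Apol 40': compound concentration given in µM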;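 for % inhibition apPOL 180': test concentration in µM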
Type: biochemical
Conditions: for DNA Pol: 90 min, 10 µM
Method in brief: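 Single-point screening used 10 µM compound with 20 nM polymerase, 20 nM hairpin substrate and 6 µM dNTPs for 90 min at 25 °C. Confirmatory titrations (2.5–80 µM) followed fluorescence at three times, and IC50 was derived from a fit including a cooperativity term n.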

[1] = 'DNA Pol' of the 186 hits list (primary screen value)

P. falciparum apicoplast DNA polymerase (Pf-apPOL), sequence (Q8ILY1 entry or part of it): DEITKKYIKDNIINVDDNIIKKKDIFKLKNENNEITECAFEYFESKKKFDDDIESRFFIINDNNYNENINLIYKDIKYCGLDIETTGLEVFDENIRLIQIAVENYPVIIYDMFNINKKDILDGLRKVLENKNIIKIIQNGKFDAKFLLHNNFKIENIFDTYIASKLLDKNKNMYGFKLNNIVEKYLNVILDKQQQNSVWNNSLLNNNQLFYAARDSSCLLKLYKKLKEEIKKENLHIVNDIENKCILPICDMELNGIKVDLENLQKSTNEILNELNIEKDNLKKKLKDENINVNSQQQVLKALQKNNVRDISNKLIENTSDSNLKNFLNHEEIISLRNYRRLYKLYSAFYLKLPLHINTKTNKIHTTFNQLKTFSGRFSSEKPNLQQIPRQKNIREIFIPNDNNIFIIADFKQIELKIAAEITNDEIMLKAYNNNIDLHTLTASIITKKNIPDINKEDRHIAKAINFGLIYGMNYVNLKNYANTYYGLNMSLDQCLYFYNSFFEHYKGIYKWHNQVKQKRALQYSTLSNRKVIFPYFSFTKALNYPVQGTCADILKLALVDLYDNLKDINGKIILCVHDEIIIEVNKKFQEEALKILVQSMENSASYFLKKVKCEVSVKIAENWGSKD

## O=C(NNC(=O)c1ccc(Cl)cc1)C(=O)NNC(=O)c1ccc(Cl)cc1 [Molecule 25, O=C(C(=O)NNC(=O)c1ccc(cc1)Cl)NNC(=O)c1ccc(cc1)Cl]
[1]
  DNA Pol: 75
DNA Pol (primary screen value)
  DNA Pol: 75
DRC-1, concentration 2.5
  % inhibition Apo pol 10': 0.1123%
  % inhibition Apol 90': -1.798%
  % inhibition apPOL 180': -4.906%
DRC-1, concentration 5
  % inhibition Apo pol 10': 29.8674%
  % inhibition Apol 90': 28.7698%
  % inhibition apPOL 180': 25.5591%
DRC-1, concentration 10
  % inhibition Apo pol 10': 53.2072%
  % inhibition Apol 90': 48.8169%
  % inhibition apPOL 180': 45.9729%
DRC-1, concentration 20
  % inhibition Apo pol 10': 61.5061%
  % inhibition Apol 90': 54.9619%
  % inhibition apPOL 180': 50.6657%
DRC-1, concentration 40
  % inhibition Apo pol 10': 64.1413%
  % inhibition Apol 90': 57.5316%
  % inhibition apPOL 180': 53.135%
DRC-1, concentration 80
  % inhibition Apo pol 10': 75.0048%
  % inhibition Apol 90': 69.6376%
  % inhibition apPOL 180': 64.4119%
DRC-2, concentration 2.5
  % inhibition Apo pol 5': 2.6%
  % inhibition Apol 40': 2%
  % inhibition ApPOL 90': 0.656%
  % inhibition apPOL 180': -2.65%
DRC-2, concentration 5
  % inhibition Apo pol 5': 10%
  % inhibition Apol 40': 13%
  % inhibition ApPOL 90': 13%
  % inhibition apPOL 180': 7.39%
DRC-2, concentration 10
  % inhibition Apo pol 5': 29%
  % inhibition Apol 40': 35%
  % inhibition ApPOL 90': 36%
  % inhibition apPOL 180': 30%
DRC-2, concentration 20
  % inhibition Apo pol 5': 45%
  % inhibition Apol 40': 54%
  % inhibition ApPOL 90': 54%
  % inhibition apPOL 180': 48%
DRC-2, concentration 40
  % inhibition Apo pol 5': 49%
  % inhibition Apol 40': 58%
  % inhibition ApPOL 90': 60%
  % inhibition apPOL 180': 55%
DRC-2, concentration 80
  % inhibition Apo pol 5': 51%
  % inhibition Apol 40': 62%
  % inhibition ApPOL 90': 64%
  % inhibition apPOL 180': 62%

## O=C(c1c[nH]c2ncccc12)N1CCCC1 [Molecule 63, O=C(c1c[nH]c2c1cccn2)N1CCCC1]
"DNA Pol" of the 186 hits list (screen value)
  DNA Pol: 28
DRC-1, concentration 2.5
  % inhibition Apo pol 10': 5.209%
  % inhibition Apol 90': 5.771%
  % inhibition apPOL 180': 3.366%
DRC-1, concentration 5
  % inhibition Apo pol 10': 6.34%
  % inhibition Apol 90': 3.06%
  % inhibition apPOL 180': -1.279%
DRC-1, concentration 10
  % inhibition Apo pol 10': 30.6254%
  % inhibition Apol 90': 21.9015%
  % inhibition apPOL 180': 12.4312%
DRC-1, concentration 20
  % inhibition Apo pol 10': 50.0486%
  % inhibition Apol 90': 39.4898%
  % inhibition apPOL 180': 25.4337%
DRC-1, concentration 40
  % inhibition Apo pol 10': 59.3862%
  % inhibition Apol 90': 47.3849%
  % inhibition apPOL 180': 33.3219%
DRC-1, concentration 80
  % inhibition Apo pol 10': 75.2483%
  % inhibition Apol 90': 77.404%
  % inhibition apPOL 180': 74.0045%
DRC-2, concentration 2.5
  % inhibition Apo pol 5': 3%
  % inhibition Apol 40': 3.74%
  % inhibition ApPOL 90': 2.81%
  % inhibition apPOL 180': -1%
DRC-2, concentration 5
  % inhibition Apo pol 5': 10%
  % inhibition Apol 40': 11%
  % inhibition ApPOL 90': 10%
  % inhibition apPOL 180': 3.46%
DRC-2, concentration 10
  % inhibition Apo pol 5': 29%
  % inhibition Apol 40': 33%
  % inhibition ApPOL 90': 30%
  % inhibition apPOL 180': 21%
DRC-2, concentration 20
  % inhibition Apo pol 5': 40%
  % inhibition Apol 40': 50%
  % inhibition ApPOL 90': 49%
  % inhibition apPOL 180': 41%
DRC-2, concentration 40
  % inhibition Apo pol 5': 42%
  % inhibition Apol 40': 62%
  % inhibition ApPOL 90': 66%
  % inhibition apPOL 180': 65%
DRC-2, concentration 80
  % inhibition Apo pol 5': 32%
  % inhibition Apol 40': 58%
  % inhibition ApPOL 90': 65%
  % inhibition apPOL 180': 68%
Primary screen value, DNA Pol
  DNA Pol: 28

## O=C1CCCC2=C1C(c1ccccn1)C1=C(CCCC1=O)O2 [KU0194228]
[1]
  DNA Pol: 11
DNA Pol (primary screen value)
  DNA Pol: 11
DRC-1, concentration 2.5
  % inhibition Apo pol 10': 1.279%
  % inhibition Apol 90': 2.669%
  % inhibition apPOL 180': 5.61%
DRC-1, concentration 5
  % inhibition Apo pol 10': 9.9789%
  % inhibition Apol 90': 9.934%
  % inhibition apPOL 180': 16.0813%
DRC-1, concentration 10
  % inhibition Apo pol 10': 33.5344%
  % inhibition Apol 90': 28.061%
  % inhibition apPOL 180': 29.7893%
DRC-1, concentration 20
  % inhibition Apo pol 10': 43.7332%
  % inhibition Apol 90': 43.923%
  % inhibition apPOL 180': 44.3828%
DRC-1, concentration 40
  % inhibition Apo pol 10': 62.1087%
  % inhibition Apol 90': 56.4118%
  % inhibition apPOL 180': 53.3605%
DRC-1, concentration 80
  % inhibition Apo pol 10': 77.9707%
  % inhibition Apol 90': 74.3626%
  % inhibition apPOL 180': 68.1872%
DRC-2, concentration 2.5
  % inhibition Apo pol 5': 5%
  % inhibition Apol 40': 2.6%
  % inhibition ApPOL 90': 2%
  % inhibition apPOL 180': -0.328%
DRC-2, concentration 5
  % inhibition Apo pol 5': 4%
  % inhibition Apol 40': -9%
  % inhibition ApPOL 90': -14%
  % inhibition apPOL 180': -74%
DRC-2, concentration 10
  % inhibition Apo pol 5': 22%
  % inhibition Apol 40': 15%
  % inhibition ApPOL 90': 18%
  % inhibition apPOL 180': 22%
DRC-2, concentration 20
  % inhibition Apo pol 5': 33%
  % inhibition Apol 40': 33%
  % inhibition ApPOL 90': 37%
  % inhibition apPOL 180': 41%
DRC-2, concentration 40
  % inhibition Apo pol 5': 44%
  % inhibition Apol 40': 46%
  % inhibition ApPOL 90': 49%
  % inhibition apPOL 180': 48%
DRC-2, concentration 80
  % inhibition Apo pol 5': 43%
  % inhibition Apol 40': 52%
  % inhibition ApPOL 90': 58%
  % inhibition apPOL 180': 60%
